# Laboratory results as given in patent US5594009A, “Fused pyrrolocarbazoles” (priority 1995, dated 1997).
# B1: NT-3: Recombinant rat NT-3 produced by using a recombinant baculovirus expression vector (protein, UniProt P18280 140-258, looked up)
# Neurotrophin-3: YAEHKSHRGEYSVCDSESLWVTDKSSAIDIRGHQVTVLGEIKTGNSPVKQYFYETRCKEARPVKNGCRGIDDKHWNSQCKTSQTYVRALTSENNKLVGWRWIRIDTSCVCALSRKIGRT
# modifications: baculovirus-expressed
# notes: Recombinant rat NT-3 produced by using a recombinant baculovirus expression vector
# Tests used:
# [1] = target: protein kinase C; assay: PKC Activity Inhibition Assay; type: biochemical
# Procedure: Fused pyrrolocarbazoles inhibited the activity of protein kinase C (Table VI). The protein kinase C assay has been disclosed (Murakata et al., U.S. Pat. No. 4,923,986; Kikkawa et al., J. Biol. Chem. 257:13341-13348 (1982)). The assay was performed with several concentrations of fused pyrrolocarbazoles. The concentration at which protein kinase C was 50% inhibited (IC50) was determined.
# [2] = tested on: NT-3 induced ChAT activity of rat basal forebrain cultures; assay: Enhancement of Neurotrophin (NT-3) Activity Assay, ChAT activity in basal forebrain cultures; type: cell-based; settings: for ChAT activity in the absence of NT-3: compound added alone to basal forebrain neurons, no NT-3; for ChAT activity in the presence of NT-3: with 100 ng/ml NT-3
# Procedure: Fused pyrrolocarbazoles were tested for the ability to enhance the activity of the neurotrophin NT-3 in basal forebrain cultures. ChAT activity was assayed as a measure of cholinergic neuron function and survival. The concentration of NT-3 (100 ng/ml) used in these experiments increased ChAT activity over control cultures (untreated with NT-3 or a fused pyrrolocarbazole) by 140%.
# Methods. Basal forebrain cultures were prepared from embryonic rats (embryonic day 17) and dissociated with the neutral protease Dispase™. Cells were plated at a density of 4×10^5 cells/cm^2 on poly-1-ornithine coated plastic tissue culture plates in a mixture of DMEM and F12 media (50/50 v/v GIBCO) supplemented with 5% horse serum and 0.5% fetal bovine serum. Cells were incubated at 37° C. in a humidified atmosphere of 5% CO2 /95% air for 5 days. ChAT activity was measured as described in Example III(A)(1).
# Recombinant rat NT-3 was produced by using a recombinant baculovirus expression vector under the control of the polyhedron virus promoter (Fraser, In Vitro Cell. and Dev. Biol. 25:225-235 (1989)). The plasmid pXM-NT3 (Hallbook et al., Neuron 6:845-858 (1991), which contained the rat NT-3 cDNA clone, was provided by Dr. Ira Black (University of Medicine and Dentistry of New Jersey, Piscataway, N.J.). NT-3 cDNA was subcloned into the transfer vector pVL1392 (In Vitrogen Corp., San Diego, Calif.) for recombinant virus production. Recombinant baculovirus was produced as described in Meyer et al. (Meyer at al., J. Neurochem 62:825-833 (1994)).
# [3] = tested on: choline acetyltransferase (ChAT) activity in dissociated rat embryonic spinal cord culture; assay: Spinal Cord ChAT Activity Assay; type: cell-based; settings: ChAT measured after 48 hours
# Procedure: In these assays, a fused pyrrolocarbazole was directly added to a dissociated spinal cord culture. […] The fused pyrrolocarbazole was added on the same day the dissociated spinal cord cell culture was initiated.
# Methods: Fetal rat spinal cord cells were dissociated, and experiments were performed as described (Smith et al., J. Cell Biology., 101:1608-1621 (1985); Glicksman et al., J. Neurochem. 61:210-221 (1993)). Dissociated cells were prepared from spinal cords dissected from rats (embryonic day 14-15) by standard trypsin dissociation techniques (Smith et al., J. Cell Biology 10:1608-1621 (1985)). Cells were plated at 6×10^5 cells/cm^2 on poly-1-ornithine coated plastic tissue culture wells in serum-free N2 medium supplemented with 0.05% bovine serum albumin (BSA) (Bottenstein et al., PNAS USA 514-517 (1979)). Cultures were incubated at 37° C. in a humidified atmosphere of 5% CO2 /95% air for 48 hours. ChAT activity was measured after 2 days it vitro using a modification of the Fonnum procedure (Fonnum, J. Neurochem. 24:407-409 (1975)) according to McManaman et al. and Glicksman et al. (McManaman et al., Developmental Biology 125:311-320 (1988); Glicksman et al., J. Neurochem. 61:210-221 (1993)).
# [4] = tested on: chick DRG neurons; assay: DRG Neuron Survival Assay (calcein AM); type: cell-based; settings: 48 hours; for viability at 0.25 µM / viability at 0.5 µM / viability at 0.1 µM: Gallus gallus, DRG neuron, read-out: Neuronal Survival (% of Control); for viability at 0.25 µM: 250 nM; for viability at 0.5 µM: 500 nM
# Procedure: Fused pyrrolocarbazoles promoted dorsal root ganglion (DRG) neuronal survival in cultures of chick DRG neurons. Cell survival was measured by uptake of calcein AM, an analog of the viable dye, fluorescein diacetate. Calcein is taken up by viable cells and cleaved intracellularly to fluorescent salts which are retained by intact membranes of viable cells. Microscopic counts of viable neurons correlate directly with relative fluorescence values obtained with the fluorimetric viability assay. This method thus provides a reliable and quantitive measurement of cell survival in the total cell population of a given culture (Bozyczko-Coyne et al., J. Neur. Meth. 50:205-216, 1993).
# Methods: Dorsal root ganglia were dissected from embryonic age day 9 chick embryos and dissociated cells prepared by subsequent Dispase (neutral protease, Collaborative Research) dissociation. Neurons were seeded at low density (3×10^4 cells/cm^2) into 96 well poly-L-ornithine and laminin coated plates. Cells were cultured for 48 hours in serum-free N2 medium (Bottenstein and Sato, 1979) at 37° C. in a humidified atmosphere, 5% CO2 /95% air. Cell survival was assessed at 48 hours using the viable fluorimetric assay described above.
# [5] = target: trkA tyrosine kinase (Homo sapiens, UniProt P04629); assay: trkA Tyrosine Kinase Activity Inhibition Assay (ELISA); type: biochemical; settings: 16 μM ATP, 37° C., 15 min; read-out: INHIBITION OF trkA KINASE IC50
# Chain of trkA tyrosine kinase (P04629 33-796): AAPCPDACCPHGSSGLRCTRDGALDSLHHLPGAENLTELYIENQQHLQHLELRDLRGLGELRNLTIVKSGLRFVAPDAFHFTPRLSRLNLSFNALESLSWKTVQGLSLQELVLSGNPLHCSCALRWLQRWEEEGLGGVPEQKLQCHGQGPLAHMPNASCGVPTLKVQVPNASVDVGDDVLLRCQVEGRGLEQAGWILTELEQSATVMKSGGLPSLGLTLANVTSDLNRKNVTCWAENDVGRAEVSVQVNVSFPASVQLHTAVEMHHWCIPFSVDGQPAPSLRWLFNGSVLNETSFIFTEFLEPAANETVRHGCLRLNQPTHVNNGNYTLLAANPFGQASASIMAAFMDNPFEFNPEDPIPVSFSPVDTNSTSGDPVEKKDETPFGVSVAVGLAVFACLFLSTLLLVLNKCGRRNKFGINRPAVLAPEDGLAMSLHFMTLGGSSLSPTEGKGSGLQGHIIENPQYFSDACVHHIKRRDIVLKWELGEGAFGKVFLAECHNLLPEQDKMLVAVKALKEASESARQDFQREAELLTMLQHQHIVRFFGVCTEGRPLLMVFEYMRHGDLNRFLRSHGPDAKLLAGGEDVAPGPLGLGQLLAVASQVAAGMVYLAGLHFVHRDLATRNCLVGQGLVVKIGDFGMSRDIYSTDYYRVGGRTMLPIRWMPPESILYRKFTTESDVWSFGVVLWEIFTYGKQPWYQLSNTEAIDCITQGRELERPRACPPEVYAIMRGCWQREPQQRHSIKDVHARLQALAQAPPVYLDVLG
# Procedure: These compounds were then tested for the ability to inhibit substrate phosphorylation by the trkA tyrosine kinase.
# Plates were washed three times with TBST, followed by two washes with TBS (TBST sans Tween-20). Fused pyrrolocarbazoles were then added at various concentrations to a reaction mixture (50 mM HEPES, pH 7.4, 5 mM MnCl2, 5 mM MgCl2, 140 mM NaCl, 16 μM ATP, and 15 ng trkA in a total volume of 1001 μL.). As a negative control, 100 mM EDTA was included in the reaction solution. The plates were then incubated at 37° C. for 15 min. The detection antibody, monoclonal anti-phosphotyrosine antibody (UBI), was added at a dilution of 1:2000 in TBST, and incubated for 1 hour at 37° C. Plates were then washed three times with TBST, followed by a 1 hour incubation at 37° C. with alkaline phosphatase-labeled goat anti-mouse IgG (1:2000 in TBST (Bio-Rad)). After washing three times with TBST followed by two washes with TBS, a colored product was produced by using NADPH as substrate for alkaline phosphatase, and the coupled reactions of diaphorase and alcohol dehydrogenase (GIBCO-BRL ELISA amplification system). The colored product was read at 490 nm in a microplate reader (Biotek).
# [6] = tested on: ChAT activity of basal forebrain cultures; assay: Basal Forebrain ChAT Activity Assay; type: cell-based, rat; settings: for activity at 0.25 µM: 250 nM
# Procedure: Fused pyrrolocarbazoles were tested for the ability to increase ChAT activity of basal forebrain cultures.
# Methods: The basal forebrain was dissected from rat embryos (day 17 or 18 embryos) and the cells were dissociated with a neutral protease (Dispase™, Collaborative Research). Neurons were plated at a density of 5×10^4 cells/well (1.5×10^5 cells/cm^2) in poly-1-ornithine and laminin coated plates. Cells were cultured in serum-free N2 medium containing 0.05% BSA at 37° C. in a humidified atmosphere, 5% CO2 /95% air. ChAT activity was assessed 5 days after plating by using the ChAT assay as described in Example III(A)(1).
# [7] = tested on: lumbar motoneurons of chick embryos; assay: Inhibition of Motoneuron Death In Ovo; type: in vivo; settings: for % of motoneurons rescued versus control / Number of motoneurons mean ± SD: E6-E9; for Number of motoneurons mean ± SD: one side of spinal cord
# Procedure: The samples (50 ul) were applied to the vascularized chorioallantoic membrane through a window in the egg shell as previously described (Oppenheim et al., 1988). Embryos were sacrificed on E10 and spinal cords were removed, fixed in Carnoy's solution (10% acetic acid, 60% ethanol, 30% chloroform), embedded in paraffin, sectioned at 8 um, and stained with thionin as described previously (Oppenheim et al., 1988). Motoneurons (identified by morphology and position) were counted by an individual blind to the treatment conditions in every tenth section according to previously established criteria (Oppenheim et al., 1982, Oppenheim, 1986).
# [8] = Rattus norvegicus, 120 h, 100 nM, read-out: ChAT Activity (% of Control)
# [9] = Rattus norvegicus, 120 h, read-out: ChAT Activity (% of Control)
molecule,measurement,setting,value
"O=C1NC(=O)c2c1c1c(c3[nH]c4ccc(Br)cc4c23)Cc2ccccc2-1 [Compound I-6, 3-Bromo-6H, 12H, 13H-indeno[2,3-c]pyrrolo[3,4-c]carbazole-5,7(5H, 7H),-dione]",IC50,[1],1000 nM
same,ChAT activity in the absence of NT-3,[2],no effect on ChAT activity
same,ChAT activity in the presence of NT-3,[2],enhanced ChAT activity
same,"Spinal Cord ChAT Activity, % of Control, untreated cultures",[3],209 % of Control
"O=C1NCc2c3c(c4[nH]c5ccc(F)cc5c4c21)Cc1ccccc1-3 [Compound I-23, 3-Fluoro-6H, 7H, 12H, 13H -indeno[2,3-a]pyrrolo[3,4-c]carbazole-5(5H)one]",IC50,[1],60 nM
same,Neuronal Survival (% of Control),[4]; 100 nM,inactive
same,viability at 0.25 µM,[4],128%
same,viability at 0.5 µM,[4],135%
same,IC50,[5],70.6 nM
same,"Spinal Cord ChAT Activity, % of Control, untreated cultures",[3],208 % of Control
"C#Cc1ccc2[nH]c3c4c(c5c(c3c2c1)CNC5=O)-c1ccccc1C4 [Compound I-36, 3-Ethynyl-5H,6H,12H,13H-indeno[2,3-a]pyrrolo[3,4-c]carbazole-7(7H)one]",ChAT Activity (% of Control),[6]; 1000 nM,inactive
same,activity at 0.1 µM,[6]; [8],122%
same,activity at 0.25 µM,[6]; [9],131%
same,activity at 0.5 µM,"[6]; Rattus norvegicus, 120 h, 500 nM, read-out: ChAT Activity (% of Control)",123%
same,"Spinal Cord ChAT Activity, % of Control, untreated cultures",[3],167 % of Control
O=C1NCc2c1c1c(c3[nH]c4ccc(CCc5ccccn5)cc4c23)Cc2ccccc2-1 [Compound I-34],viability at 0.1 µM,[4]; 100 nM,159%
same,viability at 0.25 µM,[4],203%
same,viability at 0.5 µM,[4],207%
same,% of motoneurons rescued versus control,[7]; 0.015 ug/egg daily,11%
same,Number of motoneurons mean ± SD,[7]; 0.015 ug/egg daily,10480 ± 585
same,% of motoneurons rescued versus control,[7]; 0.15 ug/egg daily,7%
same,Number of motoneurons mean ± SD,[7]; 0.15 ug/egg daily,10135 ± 354
same,% of motoneurons rescued versus control,[7]; 0.3 ug/egg daily,23%
same,Number of motoneurons mean ± SD,[7]; 0.3 ug/egg daily,11593 ± 654
same,% of motoneurons rescued versus control,[7]; 0.6 ug/egg daily,27%
same,Number of motoneurons mean ± SD,[7]; 0.6 ug/egg daily,11976 ± 1106
same,"increase in motoneuron survival in treated vs. control embryos, maximal effect","[7]; 0.6 ug/egg, vehicle-treated control",27%
same,number of surviving lumbar motoneurons / naturally occurring motoneuron death (in words),"[7]; daily application to chorioallantoic membrane, E6 to E9",dose-dependent increase in the number of surviving lumbar motoneurons
same,dose at which the maximal effect was achieved,[7]; daily dose,0.6 ug/egg
same,ChAT Activity (% of Control),[6]; 100 nM,inactive
same,ChAT Activity (% of Control),[6]; 500 nM,inactive
same,ChAT Activity (% of Control),[6]; 1000 nM,inactive
same,activity at 0.25 µM,[6]; [9],192%
same,"Spinal Cord ChAT Activity, % of Control, untreated cultures",[3],254 % of Control
"O=C1NCc2c3c(c4[nH]c5ccccc5c4c21)CCc1ccccc1-3 [Compound I-16, 12,13-dihydro-6H, 7H, 14H-naphthyl[3,4-a]pyrrolo[3,4-c]carbazole-5(5H)one]",IC50,[1],35 nM
same,"Spinal Cord ChAT Activity, % of Control, untreated cultures",[3],142 % of Control
"O=C1NC(=O)c2c1c1c(c3[nH]c4cc(Cl)ccc4c23)Cc2ccccc2-1 [Compound Ia-1, 2-Chloro-6H , 12H, 13H-indeno[2,3a]pyrrolo[3,4-c]carbazole-5,7(5H, 7H)-dione]",ChAT activity in the absence of NT-3,[2],no effect on ChAT activity
same,ChAT activity in the presence of NT-3,[2],enhanced ChAT activity
same,"Spinal Cord ChAT Activity, % of Control, untreated cultures",[3],139 % of Control
"O=C1NCc2c1c1c(c3[nH]c4ccccc4c23)CCc2ccccc2-1 [Compound I-17, 12,13-Dihydro-5H, 6H, 14H-naphthy[3,4-a]pyrrolo[3,4-c]carbazole-7(7H)one]",IC50,[1],1000 nM
same,IC50,[5],66 nM
same,"Spinal Cord ChAT Activity, % of Control, untreated cultures",[3],197 % of Control
"C=CCn1c2ccccc2c2c3c(c4c(c21)Cc1ccccc1-4)C(=O)NC3 [Compound I-26, 13-Allyl-5H,6H,12H-indeno[2,3-a]pyrrolo[3,4-c]carbazole-7(7H)one]",IC50,[1],300 nM
same,"Spinal Cord ChAT Activity, % of Control, untreated cultures",[3],167 % of Control
"O=C1NCc2c1c1c(c3[nH]c4ccc(F)cc4c23)Cc2ccccc2-1 [Compound I-12, 3-Fluoro-5H, 6H, 12H, 13H-indeno[2,3-a]pyrrolo[3,4-c]carbazole-7(7H)one]",IC50,[1],85 nM
same,viability at 0.1 µM,[4]; 100 nM,126%
same,viability at 0.25 µM,[4],165%
same,viability at 0.5 µM,[4],178%
same,IC50,[5],26.7 nM
same,activity at 0.1 µM,[6]; [8],279%
same,activity at 0.25 µM,[6]; [9],389%
same,"Spinal Cord ChAT Activity, % of Control, untreated cultures",[3],173 % of Control
"O=C1NCc2c1c1c(c3[nH]c4ccc(F)cc4c23)CCc2ccccc2-1 [Compound I-22, 12,13-Dihydro-3-fluoro-5H, 6H, 14H-naphthyl[3,4-a]pyrrolo[3,4-c]carbazole-7(7H)one]",IC50,[1],250 nM
same,"Spinal Cord ChAT Activity, % of Control, untreated cultures",[3],143 % of Control
O=C1NCc2c1c1c(c3[nH]c4ccc(C=CI)cc4c23)Cc2ccccc2-1 [Compound I-44],"Spinal Cord ChAT Activity, % of Control, untreated cultures",[3],127 % of Control
B1,increase of ChAT activity over control cultures,"[2]; NT-3 100 ng/ml, control untreated with NT-3 or fused pyrrolocarbazole",140%
